We go through 6 compounds from patent US20120148647A1, “Photoresponsive Sunscreen Composition” (Blueshift Pharma GmbH, priority 2009, published 2012).

Read-outs that look alike come from different tables or passages of the source.

A short description of series [1]: UV absorbance spectra in protonated and deprotonated form (different pH, or before and after HCl). The class given is physicochemical. Particulars: FIGS. 1 to 4. From the text: Methods to determine if a given sunscreen agent measurably changes its absorbance of UV radiation upon protonation or deprotonation will be readily available to the skilled person, but include a method summarised by the following steps. First, identify a suitable solvent for said sunscreen agent. Such a solvent may be hydrophilic (eg water or glycerine) organic/protic (eg ethanol, isopropanol or octanol), organic/polar aprotic (eg DMSO, acetonitrile or dichloromethane) or organic/unipolar (eg hexane, hexadecane or diethylether). Second, record the UV-Visible (200 nm-800 nm) absorbance spectra of a solution of the sunscreen agent using a suitable photospectrometer (such as a Beckmann DU-640 Spectrometer as described in the examples herein). Third, take an aliquot of the sunscreen UV filter solution and add a strong acid (eg trifluoroacetic acid, or hydrochloric acid, or perchloric acid) and record its UV-Visible absorbance spectra. Neutralize with a base (see next step) to check for reversibility and record the UV-Visible absorbance spectra again. Fourth, take another aliquot of the sunscreen UV filter solution and add a strong base (eg NaOH, KOH, Triethylamine, Tris(hydroxymethyl)aminomethane (TRIS)) and record its UV-Visible absorbance spectra. Neutralize with an acid (see previous step) to check for reversibility and record the resulting UV-Visible absorbance spectra. Fifth, repeat the above steps with (a) more than one acid, (b) more than one base and (c) more than one solvent to exclude artifacts from specific UV-filter-ion interactions, or specific UV-filter-solvent interactions. Conclusion: measureable changes in UV absorbance that are observed in one or more of such repeat experiments for a give sunscreen agent identify that such sunscreen agent is a suitable sunscreen agent for use in the context of the present invention.
The pH was adjusted with NaOH/HCl in aqueous solution.

Series [2] can be described thus: Predicted SPF calculated from absorption spectra. The class given is physicochemical. From the text: Predicted SPFs can be accurately determined from absorption spectra using standardized calculations based on the erythemal action spectrum, and such predicted SPFs correlate very well with in vivo determined SPFs. Corresponding algorithms for calculating SPF values are known in the art and corresponding computer programs are available; see, for example, http://www.sunscreensimulator.basf.com/Sunscreen_Simulator. Using the absorption spectrum shown in FIG. 2, the predicted SPF of a composition containing the deprotonated form of Padimate-O is approximately 10-fold higher than that of a composition containing the protonated form. With Benzophenone-4 (FIG. 1), the protonated form provides a composition having approximately 3 times the SPF as a composition containing the deprotonated form.

For series [3] the following is noted: excited state after light absorption; cited from earlier work.
The conditions of series [4]: cited from earlier work.

As to `CCCCCCOC(=O)c1ccccc1C(=O)c1ccc(N(CC)CC)cc1O` [2-(4-diethylamino-2-hydroxybenzoyl)-benzoic acid hexylester], the “effect of protonation state on UV absorption” value (shortened to “effect of protonation state”) in series [1] was “largely inactive in its protonated form”.
Consider `COc1cc(O)c(C(=O)c2ccccc2)cc1S(=O)(=O)O` [Benzophenone-4], for which the “effect of protonation state” value in series [1] was “protonated state being the from that absorbs more UVB radiation”. Besides, the “SPF of composition with protonated form relative to deprotonated form” value in series [2] (from absorption spectra of FIG. 1 (ethanol/water, pH 5 to 12)) is “approximately 3 times”.
Regarding `CCCCC(CC)COC(=O)c1ccc(N(C)C)cc1` (stereo not drawn) [Padimate-O, Ethylhexyl Dimethyl PABA], the “effect of protonation state” value in series [1] is reported as “shifts the absorption maximum of padimate-O from the UVB region to UVC”. Moreover, the “predicted SPF of composition with deprotonated form relative to protonated form” value in series [2] (from absorption spectrum of FIG. 2 (acetonitrile, before/after equimolar HCl)) was “approximately 10 fold”.
In the case of `Oc1cccc2ccccc12` [Example 1-naphthol, 1-naphthol], in series [3], the “pKa in the excited state” value is 0.4.
For the compound `COc1ccc(C(=O)c2ccccc2)c(O)c1` [oxybenzone], the oxybenzone degraded entry in series [4] (irradiation of oxybenzone and titanium dioxide, after 20 min of UV exposure) is “about 70%”; in series [4] (solution containing oxybenzone alone, after 260 min), 50%.
On to `Nc1ccc(C(=O)O)cc1` [PABA, p-aminobenzoic acid], for which, in series [1], the “effect of protonation state” value was “absorbs less UV radiation”.
